Reference: patent publication US7635664B2, “Herbicidal substituted benzoylpyrazoles” (Bayer CropScience AG, priority 2001, dated 2009)

Columns and labels:
weeds [1] = experiment: Post-emergence test (Example B), weeds; assay type: in vivo; details: test plants of a height of 5-15 cm sprayed; rated after three weeks as % damage vs untreated control
Method: (§1) To produce a suitable preparation of active compound, 1 part by weight of active compound is mixed with the stated amount of solvent, the stated amount of emulsifier is added and the concentrate is diluted with water to the desired concentration.
Test plants of a height of 5-15 cm are sprayed with the preparation of active compound such that the particular amounts of active compound desired are applied per unit area. The concentration of the spray liquor is chosen such that the particular amounts of active compound desired are applied in 1000 l of water/ha.
After three weeks, the degree of damage to the plants is rated in % damage in comparison to the development of the untreated control.
The figures denote: • 0%=no effect (like untreated control) • 100%=total destruction

weeds [2] = experiment: Pre-emergence test (Example A), weeds; assay type: in vivo; details: soil sprayed 24 hours after sowing; rated after three weeks as % damage vs untreated control
Method: as §1
Seeds of the test plants are sown in normal soil. After 24 hours, the soil is sprayed with the preparation of active compound such that the particular amount of active compound desired is applied per unit area. The concentration of active compound in the spray liquor is chosen such that the particular amount of active compound desired is applied in 1000 liters of water per hectare.
After three weeks, the degree of damage to the plants is rated in % damage in comparison to the development of the untreated control. The figures denote: • 0%=no effect (like untreated control) • 100%=total destruction

[3] = logP determination by HPLC on reversed-phase column, acidic range; assay type: physicochemical; details: for logP: marked a): acidic range, 0.1% aqueous phosphoric acid/acetonitrile gradient, reversed-phase C 18 HPLC, 43° C.
From the text: (a) Mobile phases for the determination in the acidic range: 0.1% aqueous phosphoric acid, acetonitrile; linear gradient from 10% acetonitrile to 90% acetonitrile—the corresponding measurement results in Table 1 are marked ^a).

SMILES: CCn1ncc(C(=O)c2ccc(Cl)c(NC(=O)N3CCN(C)C3=O)c2Cl)c1O [Example 1, N-[2,6-dichloro-3-[(1-ethyl-5-hydroxy-1H-pyrazol-4-yl)-carbonyl]-phenyl]-3-methyl-2-oxo-1-imidazolidinecarboxamide]
- activity against weeds, post-emergence (weeds [1]): strong activity
- activity against weeds, pre-emergence (weeds [2]): strong activity
- chromatographic logP ([3]; reversed-phase C18 HPLC column, pH=2.3): 1.58

SMILES: CCn1ncc(C(=O)c2ccc(Cl)c(NC(=O)N(C)OC)c2Cl)c1O [Example 2]
- activity against weeds, post-emergence (weeds [1]): strong activity
- activity against weeds, pre-emergence (weeds [2]): strong activity
- logP [3]: (I-2) logP = 1,39^a)

SMILES: CCn1ncc(C(=O)c2ccc(Cl)c(NC(=O)N3CCCN(C)C3=O)c2Cl)c1O [Example 5]
- activity against weeds, post-emergence (weeds [1]): strong activity
- activity against weeds, pre-emergence (weeds [2]): strong activity
- logP [3]: (I-2) logP = 1.83^a)
